#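 The compound was tested at five concentrations on cells cultured in 96-well plates, with a 48-hour exposure period. GI50 marks 50% less growth. TGI marks complete inhibition of growth.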
# What was measured:
# Experiment in all cases: NCI anticancer screen, dose series, 48 h
# [1] = tested on: 786-0 renal
# [2] = tested on: A498 renal
# [3] = tested on: T-47D breast
# [4] = tested on: SK-OV-3 ovarian
# [5] = tested on: M14 melanoma
# [6] = tested on: SK-MEL-28 melanoma
# [7] = tested on: COLO 205 colon
# [8] = tested on: SF-295 CNS
# [9] = tested on: TK-10 renal
# [10] = tested on: MDA-MB-435
# [11] = tested on: HCT-116 colon
# [12] = tested on: SNB-75 CNS
# [13] = tested on: OVCAR-5 ovarian
# [14] = tested on: SK-MEL-5 melanoma
# [15] = tested on: UACC-257 melanoma
# [16] = tested on: NCI-H226 lung
# [17] = tested on: CAKI-1 renal
# [18] = tested on: SN12C renal
# [19] = tested on: DU-145 prostate
# [20] = tested on: SW-620 colon
# [21] = tested on: U251 CNS
# [22] = tested on: A549 NSCLC
# [23] = tested on: BT-549 breast
# [24] = tested on: MCF7 breast
# [25] = tested on: EKVX NSCLC
# [26] = tested on: NCI/ADR-RES ovarian
# [27] = tested on: MOLT-4 leukemia
# [28] = tested on: MALME-3M melanoma
# [29] = tested on: OVCAR-8 ovarian
# [30] = tested on: HCT-15 colon
# [31] = tested on: MDA-MB-231 breast
# [32] = tested on: NCI-H522 lung
# [33] = tested on: RXF 393 renal
# [34] = tested on: SNB-19 CNS
# [35] = tested on: KM12 colon
# [36] = tested on: K-562 leukemia
# [37] = tested on: PC-3 prostate
# [38] = tested on: SK-MEL-2 melanoma
# [39] = tested on: SR leukemia
# [40] = tested on: UO-31 renal
# [41] = tested on: UACC-62 melanoma
# [42] = tested on: IGROV1 ovarian
# [43] = tested on: LOX IMVI melanoma
# [44] = tested on: HOP-62 NSCLC
# [45] = tested on: OVCAR-4 ovarian
# [46] = tested on: HCC-2998 colon
# [47] = tested on: CCRF-CEM leukemia
# [48] = tested on: SF-539 CNS
# [49] = tested on: ACHN renal
# [50] = tested on: HT29 colon
# [51] = tested on: NCI-H460 lung
# [52] = tested on: SF-268 CNS
# [53] = tested on: NCI-H23 lung
# [54] = tested on: RPMI-8226 leukemia
# [55] = tested on: HS 578T breast
# [56] = tested on: OVCAR-3 ovarian
# [57] = tested on: HL-60(TB) leukemia
structure (smiles),measurement,setting,value
O=c1c2cc(-c3ccc(F)cc3F)ccc2n(O)c(=O)n1-c1cccc(C(F)(F)F)c1,GI50,[1],2150 nM
same,TGI,[1],5660 nM
same,GI50,[2],347 nM
same,TGI,[2],1260 nM
same,GI50,[3],1490 nM
same,TGI,[3],5760 nM
same,GI50,[4],1130 nM
same,TGI,[4],3880 nM
same,GI50,[5],773 nM
same,TGI,[5],3470 nM
same,GI50,[6],1260 nM
same,TGI,[6],10000 nM
same,GI50,[7],1940 nM
same,TGI,[7],4050 nM
same,GI50,[8],1650 nM
same,TGI,[8],3450 nM
same,GI50,[9],4190 nM
same,TGI,[9],9170 nM
same,GI50,[10],1560 nM
same,TGI,[10],7670 nM
same,GI50,[11],420 nM
same,TGI,[11],1610 nM
same,GI50,[12],1510 nM
same,TGI,[12],6450 nM
same,GI50,[13],3380 nM
same,TGI,[13],92900 nM
same,GI50,[14],263 nM
same,TGI,[14],708 nM
same,GI50,[15],1010 nM
same,TGI,[15],4480 nM
same,GI50,[16],1010 nM
same,TGI,[16],3640 nM
same,GI50,[17],1610 nM
same,TGI,[17],6020 nM
same,GI50,[18],683 nM
same,TGI,[18],5410 nM
same,GI50,[19],2480 nM
same,TGI,[19],49100 nM
same,GI50,[20],2050 nM
same,TGI,[20],10500 nM
same,GI50,[21],1860 nM
same,TGI,[21],15700 nM
same,GI50,[22],2950 nM
same,TGI,[22],20100 nM
same,GI50,[23],437 nM
same,TGI,[23],1580 nM
same,GI50,[24],1610 nM
same,TGI,[24],7120 nM
same,GI50,[25],2350 nM
same,TGI,[25],8470 nM
same,GI50,[26],1170 nM
same,TGI,[26],10500 nM
same,GI50,[27],419 nM
same,TGI,[27],2130 nM
same,GI50,[28],1510 nM
same,TGI,[28],5390 nM
same,GI50,[29],1080 nM
same,TGI,[29],8890 nM
same,GI50,[30],435 nM
same,TGI,[30],2280 nM
same,GI50,[31],1590 nM
same,TGI,[31],6360 nM
same,GI50,[32],369 nM
same,TGI,[32],2550 nM
same,GI50,[33],1050 nM
same,TGI,[33],3140 nM
same,GI50,[34],682 nM
same,TGI,[34],> 100000 nM
same,GI50,[35],2160 nM
same,TGI,[35],7070 nM
same,GI50,[36],424 nM
same,TGI,[36],35000 nM
same,GI50,[37],1800 nM
same,TGI,[37],6950 nM
same,GI50,[38],534 nM
same,TGI,[38],2290 nM
same,GI50,[39],259 nM
same,TGI,[39],1880 nM
same,GI50,[40],2230 nM
same,TGI,[40],9300 nM
same,GI50,[41],323 nM
same,TGI,[41],1310 nM
same,GI50,[42],2030 nM
same,TGI,[42],25400 nM
same,GI50,[43],1220 nM
same,TGI,[43],2940 nM
same,GI50,[44],1800 nM
same,TGI,[44],4340 nM
same,GI50,[45],2190 nM
same,TGI,[45],> 100000 nM
same,GI50,[46],2510 nM
same,TGI,[46],9900 nM
same,GI50,[47],3120 nM
same,TGI,[47],> 100000 nM
same,GI50,[48],1470 nM
same,TGI,[48],7940 nM
same,GI50,[49],2080 nM
same,TGI,[49],10400 nM
same,GI50,[50],4300 nM
same,TGI,[50],26800 nM
same,GI50,[51],668 nM
same,TGI,[51],5230 nM
same,GI50,[52],1750 nM
same,TGI,[52],15500 nM
same,GI50,[53],722 nM
same,TGI,[53],5300 nM
same,GI50,[54],1020 nM
same,TGI,[54],5850 nM
same,GI50,[55],837 nM
same,TGI,[55],4420 nM
CCCCOc1ccc(S(=O)(=O)N2CCN(c3nc(C)cc(N4CCOCC4)n3)CC2)cc1,GI50,[3],> 100000 nM
same,TGI,[3],> 100000 nM
same,GI50,[10],1450 nM
same,TGI,[10],> 100000 nM
same,GI50,[11],1440 nM
same,TGI,[11],> 100000 nM
same,GI50,[13],> 100000 nM
same,TGI,[13],> 100000 nM
same,GI50,[17],2110 nM
same,TGI,[17],> 100000 nM
same,GI50,[19],1010 nM
same,TGI,[19],> 100000 nM
same,GI50,[20],2330 nM
same,TGI,[20],> 100000 nM
same,GI50,[22],3850 nM
same,TGI,[22],> 100000 nM
same,GI50,[24],> 100000 nM
same,TGI,[24],> 100000 nM
same,GI50,[26],2450 nM
same,TGI,[26],> 100000 nM
same,GI50,[27],2270 nM
same,TGI,[27],> 100000 nM
same,GI50,[28],> 100000 nM
same,TGI,[28],> 100000 nM
same,GI50,[30],2090 nM
same,TGI,[30],> 100000 nM
same,TGI,[31],> 100000 nM
same,GI50,[34],> 100000 nM
same,TGI,[34],> 100000 nM
same,GI50,[35],3120 nM
same,TGI,[35],> 100000 nM
same,GI50,[37],4540 nM
same,TGI,[37],> 100000 nM
same,GI50,[39],5460 nM
same,TGI,[39],> 100000 nM
same,GI50,[42],1090 nM
same,TGI,[42],> 100000 nM
same,GI50,[43],294 nM
same,TGI,[43],942 nM
same,GI50,[56],> 100000 nM
same,TGI,[56],> 100000 nM
same,GI50,[44],> 100000 nM
same,TGI,[44],> 100000 nM
same,GI50,[48],> 100000 nM
same,TGI,[48],> 100000 nM
same,GI50,[50],888 nM
same,TGI,[50],6230 nM
same,GI50,[51],1670 nM
same,TGI,[51],> 100000 nM
same,GI50,[57],420 nM
same,TGI,[57],> 100000 nM
same,GI50,[52],2320 nM
same,TGI,[52],> 100000 nM
same,GI50,[54],2640 nM
same,TGI,[54],> 100000 nM
same,GI50,[55],> 100000 nM
same,TGI,[55],> 100000 nM
